Where a name gives a salt, the structure may show the parent alone.
How the values were obtained:
[1] = Approximate solubility in distilled water at room temperature; assay type: physicochemical; settings: distilled water, room temperature
Description: The syntheses of the target prodrugs were performed according to a known three-step procedure with some modifications. Target prodrugs GK-667, GK-678 and GK-691 were obtained in 34%, 37% and 17% overall yields, respectively. […] The resulting solutions remained physically stable for at least two hours at room temperature.

[2] = ICRF-193 release from the prodrugs during incubation in DMEM (thermomixer, UHPLC-MS/MS); assay type: in vitro ADME; settings: 100 µM, 37 °C
Description: All samples were spiked with the internal standards. DMEM or buffer (100 μL) was diluted with an ice-cold methanol/water mixture (20:80, v/v), mixed and analyzed. Plasma (50 μL) was precipitated with ice-cold methanol (1:5, v/v), mixed (20 s) and centrifuged (10 min, 10,000 rpm, 4 °C). NVCM pellets (4.8 × 10^6 cells) were precipitated with ice-cold methanol (250 μL), mixed (20 s), sonicated in a cold ultrasonic bath (75 s), mixed (30 s) and centrifuged (10 min, 10,000 rpm, 4 °C). The supernatants from the plasma and NVCM extractions were filtered (0.22 μm, PVDF) prior to analysis. For assay of the prodrugs, the samples were acidified with formic acid to a final concentration of 0.5%.
The samples were analyzed using two UHPLC instruments both coupled to a triple quadrupole mass spectrometer. […] Positive ionization mode was used in both methods. The analytical columns tested are characterized in the Supplementary materials.
The prodrugs (100 μM) were incubated (37 °C) in DMEM in a thermomixer (Thermomixer Comfort, Eppendorf, Germany) under gentle mixing (350 rpm) for 48 h.
(§1) From all of the above described experiments, samples were taken at predefined intervals, treated and immediately analyzed. All experiments were performed in four replicates, and the results are expressed as the mean ± SD.

[3] = Process stability in untreated plasma; assay type: in vitro ADME, rabbit; settings: within 10 min
Description: Linearity was tested within the concentration range of 0.2 – 100 μM for all compounds in DMEM, the buffer and plasma and 10-100 pmol/106cells in NVCMs (method I). For method II, the concentration ranges 0.01-15 μM and 0.01-1 μM were used for determination of ICRF-193 and ICRF-193met in plasma, respectively. Unweighted and weighted (1/x and 1/x2) linear regression was applied to obtain the best fitting calibration model. […]
Stability of the analytes was examined at low and high concentrations. Process s tability (n=3) in plasma was tested for 20 min at either laboratory temperature (23 °C) or on ice (4 °C, only for GK-667). Post-preparation stability was examined for 8 to 10 h in an autosampler (8 °C, n=3) for all treated matrices. […]

[4] = In vivo pharmacokinetic study of GK-667 in rabbits, noncompartmental analysis; design: species or system rabbit
Description: GK-667 was freshly dissolved in saline (5 mg/mL) before each administration. New Zealand White male rabbits (n = 6, ∼3.8 kg) received GK-667 (5 mg/kg) administered as a single slow (2 min) intravenous dose bolus to the ear marginal vein. Blood (∼1 mL) was sampled from veins on the contralateral ear at selected time points after drug administration (5 min to 9 h) into BD Vacutainers (BD Biosciences, Plymouth, UK) containing lithium heparin. Collected blood samples were immediately centrifuged (2 min, 3000 rpm, 4 °C), and plasma samples were harvested directly.
Plasma samples taken 0 to 20 min after GK-667 administration were immediately processed by the addition of formic acid and precipitation with ice-cold methanol. The supernatants were then analyzed for all analytes, including the intact prodrug. This was essential to ensure the appropriate determination of highly labile GK-667 at the first sampling intervals, and the whole procedure was validated for this purpose. […] Thus, all following plasma samples were immediately shock-frozen in liquid nitrogen and stored at -80 °C until analysis.
For drug administration and blood sampling, light anesthesia was induced in rabbits with a mixture of ketamine (25 mg/kg, i.m.) and midazolam (2.5 mg/kg, i.m.); sedation was then maintained with midazolam when needed. The blood withdrawn from the animals was compensated with an appropriate volume of sterile saline. All in vivo experiments and procedures were approved and supervised by the Animal Welfare Committee of the Faculty of Medicine in Hradec Kralove (Charles University), and the experiments were performed in compliance with the ARRIVE guidelines.
Standard noncompartmental analysis was performed using Kinetica software (version 4.0, Thermo Fisher Scientific Inc., USA). The population parameter estimation for nonlinear mixed effect models was conducted using Monolix version 2019R2 software (Antony, France: Lixoft SAS, 2019, http://lixoft.com/products/monolix/). The stochastic approximation expectation maximization (SAEM) algorithm coupled with Markov Chain Monte Carlo (MCMC) without the use of approximations (linearization) was used for the estimation of the likelihood. For evaluation of the goodness-of-fit, the following plots were assessed: observed versus individual predicted concentrations, weighted residuals versus time and weighted residuals versus predictions. Individual parameter values were obtained as empirical Bayes estimates. A visual predictive check with 1000 simulated data sets was performed.

[5] = Incubation in DMEM in an incubator (5% CO2, 37 °C) without cells; assay type: in vitro ADME; settings: 100 µM
Description: Herein, incubations were performed in DMEM (100 μM) in a CelCulture Incubator (5% CO2, 37 °C, ESCO, USA) to mimic the conditions of the in vitro cytoprotective assay, and the results were compared to those from the saline buffer (116 mM NaCl, 5.3 mM KCl, 1.2 mM MgSO4, 1 mM CaCl2, 1.13 mM NaH2PO4, 5 mM glucose, and 20 mM HEPES, pH = 7.4).
as §1

Structure (SMILES): C[C@H]([C@H](C)N1CC(=O)N(COC(=O)CN)C(=O)C1)N1CC(=O)N(COC(=O)CN)C(=O)C1 [GK-667, meso-2,3-bis(4-(2-aminoacetoxymethyl)-3,5-dioxopiperazin-1-yl)butane tetrahydrochloride]
- solubility [1]: ~20 mg/mL
- conversion to the inactive metabolite ICRF-193met ([2]; AUC0–3 h and AUC0–48 h, compared with the other prodrugs): lowest conversion
- AUC0–3 h of ICRF-193 concentrations ([2]; GK-667 compared with GK-678): no statistically significant differences
- AUC0–48 h of ICRF-193 concentrations ([2]; GK-667 compared with GK-678): significantly higher
- GK-667 decomposed ([3]; plasma samples at room temperature (23 °C)): ~50%
- GK-667 decomposed ([3]; plasma samples on ice): less than 6%
- Cmax ([4]; male, New Zealand White, rabbit, plasma, iv, 5 mg/kg, rabbits n = 6, GK-667 5 mg/kg i.v., NCA): 2700 nM
- Tmax ([4]; male, New Zealand White, rabbit, plasma, iv, rabbits n = 6, GK-667 5 mg/kg i.v., NCA, read-out: Tmax (converted)): 5 min
- concentration at 5 min ([4]; male, New Zealand White, rabbit, plasma, iv, rabbits, GK-667 5 mg/kg i.v., 5th min, read-out: mean plasma concentration of the prodrug): 2700 nM
- concentration at 10 min ([4]; male, New Zealand White, rabbit, plasma, iv, rabbits, GK-667 5 mg/kg i.v., 10th min, read-out: mean plasma concentration of the prodrug): 400 nM
- concentration at 20 min ([4]; male, New Zealand White, rabbit, plasma, iv, rabbits, GK-667 5 mg/kg i.v., 20 min, in all but one animal, read-out: plasma concentration of the prodrug (below LLOQ)): < 100 nM
- time to essentially complete clearance of the parent compound from plasma ([4]; rabbits, after injection of GK-667): ≤ 10 min
- degradation in DMEM without cells [5]: rapidly degraded

Reference: article PMC7904827 (Scientific Reports, 2021)
